Test results as given in patent publication US11643438B2, “Antimicrobial peptides and methods of use” (priority 2018, dated 2023).
Converted amounts (≈) assume the structure as drawn. “Also recorded” adds a separate entry of the source. Where two headings read alike, the source gives them in different places. *1 amine or outer side, *2 acyl side, *3 side chain or, on linkers, in order; H or OH if unused. Where a SMILES comes first, the peptide text is derived from it. [ ]: non-standard residue; d: D form. X2 = CC[C@H](C)C[C@H](C)C[C@H](C)C[C@H](N[*:1])C(=O)[*:2]; X1 = CC[C@@H](C)[C@@H](O[*:1])C(=O)[*:2]; NMeVal(β-OH) = CN[C@H](C(=O)O)C(C)(C)O; aIle = CC[C@@H](C)[C@H](N)C(=O)O; NMeV = CN[C@H](C(=O)O)C(C)C; Sar = CNCC(=O)O

Key:
Candida albicans SC5314 = experiment: Ex vivo model of fungal keratitis (porcine cornea)
C. albicans SC5314 Flu^R = experiment: Ex vivo model of fungal keratitis (porcine cornea); set-up: species or system Candida albicans
[1] = tested on: Aspergillus fumigatus NRRL5109; experiment: Ex vivo model of fungal keratitis (porcine cornea); settings: for effect of different doses on fungal growth: FIG. 10
[2] = Mammalian cell cytotoxicity assay (calcein/Hoechst); assay type: cell-based; settings: human, read-out: LC50
Procedure: Cell cytotoxicity was tested against the human liver cancer cell line HepG2 and the HPV-immortalized ectocervical epithelium cell line Ect1/E6E7. The HepG2 cells were cultured in the EMEM medium supplemented with 5% FetalClone III and penicillin/streptomycin (5 Units/mL, 50 ug/mL). The Ect1/E6E7 cells were grown in the RPMI 1640 medium supplemented with 5% FetalClone III, EGF (10 ng/mL Novoprotein #C029), and penicillin/streptomycin (5 Units/mL, 50 ug/mL). For the assays, 5,000 HepG2 or Ect1/E6E7 cells were seeded into each well of a 96-well plate and allowed to attach overnight in a 37° C. humidified incubator. The next day, test compounds were diluted in DMSO, added to the wells at a final DMSO concentration of 0.5% and cells were incubated for an additional 48 hours. Cell viability was determined by the Calcein and Hoechst Assay on the Perkin Elmer Operetta. In each assay, 5 μL of the fluorescent dyes (40 μM calcein AM and 160 μM Hoechst 33342 in DMSO) and 25 μL PBS were added into each well. Plates were incubated for 30 minutes and then analyzed on the Operetta. The Harmony software was used to calculate the whole-cell area by finding all the Hoechst-labeled nuclei. The live and dead cells were assessed based on a threshold of the green calcein fluorescence. […]

Alternaria brassicae = experiment: MIC/MFC against phytopathogenic (endophytic) fungi
Alternaria tennuissiema = experiment: MIC/MFC against phytopathogenic (endophytic) fungi
Fusarium oxysporum = experiment: MIC/MFC against phytopathogenic (endophytic) fungi
Fusarium tricinctum = experiment: MIC/MFC against phytopathogenic (endophytic) fungi
Nodulosporium spp. = experiment: MIC/MFC against phytopathogenic (endophytic) fungi
P. glomerata = experiment: MIC/MFC against phytopathogenic (endophytic) fungi

In the case of `CC[C@H](C)C[C@H](C)C[C@H](C)C[C@@H]1NC(=O)[C@H](C(C)C)N(C)C(=O)[C@@H]([C@H](C)CC)OC(=O)[C@H](C(C)(C)O)N(C)C(=O)[C@H](CC(C)C)NC(=O)[C@H](C(C)C)N(C)C(=O)[C@H]([C@H](C)CC)NC(=O)[C@@H]2CCCN2C(=O)CN(C)C1=O` [Compound 1, persephacin] (cyclo(L[NMeVal(β-OH)][X1][NMeV][X2][Sar]P[aIle][NMeV])), the “antifungal activity (fungal growth/infection), in words” value (Candida albicans SC5314; 0.1% 118A, 2% fluconazole, 5% natamycin, FIG. 11) is reported as “inhibited the growth; also recorded: eliminated the fungus”, the “effect of different doses on fungal growth” value (from here on “effect of different doses”) (Candida albicans SC5314; 50-1,000 μg/mL, FIG. 8) is reported as “effective at reducing or eliminating the fungus” and the CFU (Candida albicans SC5314; 118A 0.1% (1 mg/ml), natamycin 5% (50 mg/ml), fluconazole 2% (20 mg/ml)) is reported as 0 CFU. For the same compound, the CFU (C. albicans SC5314 Flu^R; C. albicans SC5314 Flu^R, 118A 0.1% (1 mg/ml), natamycin 5% (50 mg/ml), fluconazole 2% (20 mg/ml)) was 0 CFU, the “effect of different doses” value (C. albicans SC5314 Flu^R; Candida albicans SC5314FluR, 50-1,000 μg/mL, FIG. 9) was “effective at reducing or eliminating the fungus” and the “effect of different doses” value ([1]; Aspergillus fumigatus NRRL 5109, 1,000 μg/mL) was “eliminating”. The “antifungal activity (fungal growth/infection), in words” value ([1]; Aspergillus fumigatus NRRL 5109, 0.1% 118A, 2% fluconazole, 5% natamycin, FIG. 13) was “inhibited the growth; also recorded: eliminated the fungus”, the “effect of different doses” value ([1]; Aspergillus fumigatus NRRL 5109, 50-250 μg/mL) was “effective at reducing” and the CFU ([1]; Aspergillus fumigatus NRRL5109, 118A 0.1% (1 mg/ml), natamycin 5% (50 mg/ml), fluconazole 2% (20 mg/ml)) was 0 CFU. The CC50 at 48 h ([2]; Ect1/E6E7 cells (HPV-immortalized ectocervical epithelium), Ect1/E6E7 cell line) was 30 µM, the CC50 at 48 h ([2]; HepG2 cells, HepG2 cell line) was 30 µM and the MFC (Alternaria brassicae) was 2.5 µM (≈ 2.69 µg/mL). The MIC (Alternaria brassicae) was 1.25 µM (≈ 1.34 µg/mL), the MFC (Alternaria tennuissiema) was 10 µM (≈ 10.8 µg/mL) and the MIC (Alternaria tennuissiema) was 10 µM (≈ 10.8 µg/mL). The MFC (Fusarium oxysporum) was 20 µM (≈ 21.5 µg/mL), the MIC (Fusarium oxysporum) was 5 µM (≈ 5.38 µg/mL) and the MFC (Fusarium tricinctum) was 10 µM (≈ 10.8 µg/mL). For the same compound, the MIC (Fusarium tricinctum) was 5 µM (≈ 5.38 µg/mL), the MFC (Nodulosporium spp.) was greater than 20 µM and the MIC (Nodulosporium spp.) was greater than 20 µM. For the same compound, the MFC (Nodulosporium spp.; Nodulosporium spp., […]) was “neither compound showed MIC or MFC activity”, the MIC (Nodulosporium spp.; Nodulosporium spp., […]) was “neither compound showed MIC or MFC activity” and the MFC (P. glomerata) was 1.25 µM (≈ 1.34 µg/mL). For the same compound, the MIC (P. glomerata) was 0.625 µM (≈ 0.672 µg/mL) and the MIC (P. glomerata; P. glomerata, […], listed as Persephacin A) was “.625 µM”.
